Data: patent US12263182B2, “Method of introducing an mRNA molecule into a cell” (PCI Biotech AS, priority 2018, dated 2025)

What was measured:
[1] = system: MC-38 tumours; test: Intratumoural luciferase mRNA delivery with PCI (blue light), luciferase enzymatic assay on tumour homogenates; format: in vivo, mice; conditions: Example 3, 6 min blue light
Method: An experiment was performed to study in vivo naked mRNA delivery to colon adenocarcinoma tumours (MC-38 tumours) in mice.
The experiment was performed with Luciferase-encoding modified mRNA, and the effect was analysed by an enzymatic luciferase assay on tumour extracts, with tumours harvested 20 hours after illumination. Each animal had two tumours (A and B) that were injected and analysed separately.
TriLink modified luciferase mRNA (T14-GU03A), 3 μg was used per injection.
Female mice of the strain C57BL/6 (Charles River) were be used. Animal identification and conditions of housing, acclimatisation, environment, diet and water was in accordance with the current Standard Operating Procedures at the animal facilities at Oslo University Hospital—The Radium Hospital.
The animals were inoculated with 500 000 MC-38 cells per tumour, 2 tumours per animal. The size of the tumours on mRNA injection was 60-150 mm^3. Animals were randomized by tumour volume, animals with tumour ulcers were excluded. mRNA was mixed with TPCS2a and the mixture (25 μl) was injected into the tumours at time 0. The pure (naked) mRNA was injected at the same time point.
The injections were performed with gas anesthesia (Sevoflurane). The aim of the injection was to deposit a solution in the centre of the outer third of the tumour, avoiding the central core of the tumour. Insulin syringes were used to deliver the 25 μl of treatment.
The tumours in the PCI groups were illuminated (blue light from LumiSource) 60 min after mRNA/TPCS2a injection according to Table 5. The day after mRNA administration (i.e. around 20 hours after illumination) animals were killed and all tumours were removed and frozen for later homogenization and enzymatic assay for luciferase (Luciferase Assay System, Promega, Cat #E1500). After homogenization the amount of protein in the tumour extract was determined using the RC-DC Protein Assay (Bio-Rad Hercules, California, USA) and the luciferase enzymatic activity per mg tumour was calculated.

[2] = system: skin of mice; test: Intradermal naked luciferase mRNA delivery with PCI, bio-luminescence imaging (IVIS) of injection sites; format: in vivo; conditions: for effect on mRNA delivery (fold increase in luminescence vs mRNA only): Example 1C, 2 μg unmodified mRNA L-6307, 0.003 μg TPCS2a
Method: Firefly luciferase mRNA (1921 nucleotides in length; L-6107—with modified bases 5-methylcytidine (5meC) and pseudo-uridine (ψ); L-6307—unmodified mRNA; L-7202—with modified base 5-methoxyuridine (5moU), and with the TriLink CleanCap™ modification as the capping structure, purchased from TriLink Biotechnologies, San Diego, USA) and TPCS2a (Amphinex®, PCI Biotech AS, Norway) were mixed in a volume of 20 μl PBS and the mixture was injected into the skin of mice at time 0. Different doses were used in different experiments, and in control samples no TPCS2a was used. Injections were performed in 4 sites (A-D) per mouse (see FIG. 1 and diagram and table below), and the injection sites were illuminated in general 60 min after mRNA/TPCS2a injection. With this set-up the two sites in each animal not receiving TPCS2a act as controls internal to each animal. This is useful for being able to correct for possible differences between animals e.g. in the injection and distribution of luciferin prior to the bio-luminescence imaging.
Injection sites were illuminated with blue light (wavelength between 400 and 540 nm with a peak at around 435 nm) from the LumiSource illumination device.
4-6 or 20-24 hours after illumination luciferase activity at the injection sites was analysed by bio-luminescence imaging in the IVIS instrument (IVIS Spectrum, model 124375R from PerkinElmer). Pictures were taken 20 min after luciferin injection, and bio-luminescence in a defined region-of-interest (ROI) around each injection site was quantified. The procedure for IVIS imaging was as follows: i) The mice were given an intraperitoneal injection of 3 mg D-Luciferin (200 μl of 15 mg/ml stock).
ii) After approximately 10 min, the mice were anaesthetized by a subcutaneous injection of Zoletil (10-15 mg/kg xylasin, 5-10 mg/kg butorphanol and 15-20 mg/kg Zoletil (containing zolazepam and tiletamine)).
iii) 20 min after D-luciferin injection, mice were placed in the IVIS instrument and pictures were taken with automatic exposure of Luminescence (Andor camera IS0825R4582; iKon Living Image version: 4.5.2.18424. Binning factor: 8; Excitation filter: Block; Emission filter: Open; f Number: 1)
iv) The bio-luminescence in ROIs covering each injection site was measured to quantify luciferase expression. The detailed set-up of a typical experiment (Example 1) can be found in Table 1.
Animals were injected by mRNA and TPCS2a as described under Methods and treated as described in Table 1 with the sites shown in FIG. 8.
3 μg mRNA and different amounts of TPCS2a (ranging from 0.0003 μg to 10 μg) were mixed and injected into the skin of mice as described under Methods. 60 min after the injections the mice were illuminated for 6 (in general) or 3 min (in one case) with blue light from the LumiSource illumination device. The animals were injected with luciferin and imaged in the IVIS instrument as described under Methods. The luminescence in defined regions of interest round the injection sites was assessed in the IVIS instrument. For each animal the luminescence at the sites receiving mRNA+TPCS2a was compared to the luminescence at the sites receiving mRNA only, and the fold increase (FI) in luminescence at the TPCS2a injected sites in each animal was calculated by the formula FI=luminescencemRNA+TPCS2a/luminescencemRNA only. […]
Lipofectamine is a very efficient transfection agent commonly used for delivery of mRNA and other nucleic acids; and it has also been used for mRNA delivery in vivo (Zangi et al., 2013, supra). However several type of toxic reactions have been observed with in vivo use of lipofectamine, limiting the possibilities for clinical use of this transfection agent. […]

[3] = system: TC-1 tumours; test: Intratumoural luciferase mRNA delivery with PCI (red light 652 nm), luciferase enzymatic assay on tumour homogenates; format: in vivo, mice; conditions: Example 2
Method: An experiment was performed to study in vivo naked mRNA delivery to TC-1 tumours (model for HPV-induced tumours) in mice.
In these experiments the TC-1 tumour model for HPV-induced cancer was employed. mRNA delivery was assessed by performing a luciferase enzymatic assay on homogenates from tumours harvested the day after illumination. Red light laser light illumination with a wavelength of 652 nm was used. The experiment was performed as follows: • Luciferase mRNA (L-7202 CleanCap™ FLuc mRNA (5moU)) from TriLink, 3 μg per injection) was mixed with TPCS2a and injected into the tumours in an injection volume of 20 μl. • 60 min after mRNA/TPCS2a injection the tumours were illuminated with different doses of red laser light (at 652 nm) for 12.5-500 seconds. • The day after illumination, all tumours were removed and frozen for later enzymatic assay for luciferase (Luciferase Assay System, Promega, Cat #E1500). • The protein content in the samples was measured with the RC DC Protein Assay kit (BioRad) assay, and the relative amounts of active luciferase in each sample was calculated as Relative Luminescence Units (RLU: Arbitrary units) per mg of protein.

## tetraphenyl chlorin disulfonate [TPCS2a]
[1]; 3 μg mRNA + 0.001-0.01 μg TPCS2a intratumoural, harvested 20 h after illumination
  effect on luciferase mRNA delivery (luciferase enzymatic activity in tumour homogenates, single tumours): substantially enhanced luciferase mRNA delivery
[1]; 0.003/6 min group: 3 μg mRNA + 0.003 μg TPCS2a
  PCI-induced improvement in mRNA delivery compared to mRNA without PCI (group means): about 3 times
[1]; 0.01/6 min group: 3 μg mRNA + 0.01 μg TPCS2a
  PCI-induced improvement in mRNA delivery compared to mRNA without PCI (group means): about 10 times
[2]; Example 1A, 12 sites each, 2 μg mRNA + 0.003 μg TPCS2a intradermal, 6 min blue light
  enhancement of mRNA delivery by PCI, mean of all animals versus mRNA only: about 3 times
[2]; Example 1A, animal 6, 2 μg luciferase mRNA L-6107 + 0.003 μg TPCS2a intradermal, 6 min blue light, imaged 4 h after illumination
  mean bio-luminescence for the PCI treated sites versus the mRNA only sites: more than 5 times
[2]; Example 1B, 3 μg mRNA, 0.003 μg TPCS2a, 6 and 3 min blue light
  effect on mRNA delivery, 6 versus 3 min illumination: comparable enhancement of mRNA delivery
[2]; Example 1B, 3 μg mRNA, TPCS2a dose of 0.0003 μg, blue light
  effect on mRNA delivery (luciferase expression, fold increase vs mRNA only): improved mRNA delivery
[2]; Example 1B, 3 μg mRNA, TPCS2a doses above 0.3 μg (PCI10, PCI3, PCI1), 6 min blue light
  effect on mRNA delivery (luciferase expression, fold increase vs mRNA only): strongly detrimental effect on mRNA delivery
[2]; Example 1B, 3 μg mRNA, TPCS2a doses of 0.01 μg and below, 6 min blue light
  effect on mRNA delivery (luciferase expression, fold increase vs mRNA only): significant enhancement of mRNA delivery
[2]; Example 1B, 3 μg mRNA, TPCS2a doses of 0.3 to 0.03 μg, 6 min blue light
  effect on mRNA delivery (luciferase expression, fold increase vs mRNA only): did not alter luciferase expression significantly
[2]; 0.5 min blue light
  effect on mRNA delivery (fold increase in luminescence vs mRNA only): enhanced mRNA delivery
[2]; 4 min blue light
  effect on mRNA delivery (fold increase in luminescence vs mRNA only): enhanced mRNA delivery
[2]; Example 1D, 2 μg mRNA L-7202 intradermal, 0.003 μg TPCS2a, 6 min blue light, imaged 4 h after illumination, comparator 6 μl lipofectamine
  improvement of mRNA translation over what was achieved with lipofectamine: ~4 times
[3]; 3 μg mRNA + 0.1 μg TPCS2a, red light 652 nm
  optimum illumination dose for PCI-enhanced mRNA delivery: around 2 J/cm^2
[3]; 3 μg mRNA + 0.1 μg TPCS2a, without illuminating the tumours
  effect on mRNA delivery versus mRNA alone (RLU/mg protein): did not seem to enhance mRNA delivery significantly
[3]; 3 μg mRNA L-7202 + 0.1 μg TPCS2a intratumoural, red light 0.1 to 4 J/cm^2, tumours harvested day after illumination
  effect on mRNA delivery and translation (RLU/mg protein): strong enhancement of mRNA delivery and translation
